Test results from patent publication US20130096160A1, “ARYLTHIAZOLYL PIPERIDINES AND RELATED COMPOUNDS AS MODULATORS OF SURVIVAL MOTOR NEURON (SMN) PROTEIN PRODUCTION” (Secretary, Department of Health and Human Services, priority 2010, published 2013).

What was measured:
SMN2-luciferase reporter = SMN2-luciferase reporter qHTS assay; format: cell-based, human; design: key to Curve Class: A curve class of 1.1 is a full agonist/antagonist; a curve class of 4 indicates the compound is inactive; conditions: for Curve Class: agonist/antagonist character of the concentration-response, lower values = more significant concentration-response; for Increased SMN2 activity: percent increase (or decrease) in SMN2 levels compared to control in which no test compound is added
How it was run: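 SMN2 exon-7 splicing firefly-luciferase reporter cell line, ~2000 cells/well in phenol-red-free DMEM with 10% serum, allowed to adhere 10–12 h, then exposed to compounds for 2 days at 37 C, 5% CO2. Seven-point five-fold dilution series (e.g. 50 μM to 3.2 nM), OneGlo luminescence read, curves fitted to Hill equation.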

human SMN protein = assay: Western blot of SMN protein in SMA patient fibroblasts (3813); format: cell-based; conditions: 3813 fibroblasts, quantitative western blotting, different doses, FIG. 4
Experimental: Type I spinal muscular atrophy (SMA)-affected human primary fibroblasts (#GM03813) and carrier parents (#GM03814, parent and #GM03815, […]) are obtained live with low passage number from Coriell Cell Repositories. […] For detection of SMN protein in patient fibroblasts, 8,000 cells per cm^2 are plated 24 hours prior to drug addition. Fresh media and compound are added every 24 hours. After 72 hours, cells are harvested, washed with cold PBS, and lysed. Samples are subjected to polyacrylamide gel electrophoresis (PAGE). It is determined that 10 μg total protein per lane is within the linear range for immunoblot detection of SMN and alpha-tubulin. Western blots of the gel are probed for SMN with the 4B7 mouse monoclonal antibody (from the lab of Christian Lorson). A goat anti-mouse antibody (Santa Cruz Biotechnology/#sc-2005) conjugated to horseradish peroxidase (HRP) is used as the secondary antibody. Quantification of protein is performed by detecting chemiluminescence with a Fujifilm LAS-4000 Multifunctional Imaging System. […] We incubated a fibroblast cell line from a type I SMA patient (3813 cell line) with different doses of analogues and assessed the SMN protein level by quantitative western blotting (FIG. 4). We observed that analogue 8 m at concentration of 37 nanomolar increased the SMN protein level by 2-3 fold. […] This could be due with the intrinsic mechanism of action or to other causes, such us concentration dependent compound solubility.

[1] = mouse, microsomes, 1 h, 1 μM, pH 7.4
Experimental: The test agent is incubated at 1 μM in duplicate with mouse microsomes at 37° C. for 60 min. The reaction contains 0.3 mg/mL microsomal protein in 100 mM potassium phosphate, 2 mM NADPH, 3 mM MgCl2, pH 7.4. A control is run for each test agent omitting NADPH to detect NADPH-free degradation. At indicated times, an aliquot is removed from each experimental and control reaction and mixed with an equal volume of ice-cold Stop Solution (0.3% acetic acid in acetonitrile containing haloperidol, diclofenac, or other internal standard). Stopped reactions are incubated at least ten minutes at −20° C., and an additional volume of water is added.
The samples are centrifuged to remove precipitated protein, and the supernatants are analyzed by LC/MS/MS, as described above, to quantitate the remaining parent. Data are reported as % remaining by dividing by the time zero concentration value.

[2] = system: SMN positive foci or gems in the nucleus; assay: Gem count in human type I SMA fibroblasts; format: cell-based; conditions: 3 days, 37 nM-3000 nM, FIG. 5
Excerpt: Furthermore, the increase in SMN protein production led us to explore whether the arylpiperidine analogues had effect of on the overall number of SMN positive foci or gems in the nucleus. This would corroborate that the increased protein amounts represent indeed functional SMN protein. SMN protein is predominately a cytoplasmic protein in the nucleous SMN which localized to in distinct punctuate bodies often referred to as gems (gemini of coiled [Cajal] bodies). There is a direct correlation between the number of gems and total SMN protein production in the cell. Gem counts are commonly used as another metric to score the amount total SMN protein expressed on a cell-to-cell basis. […] Only 3.3% of nuclei have gems in fibroblast cells from SMA type I patients (cell line 3813), while 24.8% of nuclei have gems in fibroblast from a carrier parent (3814 cell line). We treated human type I SMA fibroblasts with increasing doses (37 nM 3000 nM) of arylpiperidine analogues 8a, 8m, and 9a for 3 days and the number of gems per 100 nuclei were examined (FIG. 5). Analogue 8m treatment yielded more than 2 fold of increase of the number of the gems at low 37 nM dose.

| Compound | Curve Class (SMN2-luciferase reporter) | Increased SMN2 activity (SMN2-luciferase reporter) [%] | other results |
| --- | --- | --- | --- |
| Cc1ccc(-c2cnc(N3CCC(C(N)=O)CC3)s2)cc1 [Example 119, 1-(5-P-Tolylthiazol-2-yl)Piperidine-4-Carboxamide] | 1.1 | 609.4 | SMN protein level versus dose (in words) (human SMN protein): up-regulation of SMN protein at concentrations ranging between 37 nM and 333 nM |
| CN(C)c1cccc(-c2csc(N3CCC(C(N)=O)CC3)n2)c1 [Example 63, 1-(4-(3-(Dimethylamino)Phenyl)Thiazol-2-yl)Piperidine-4-Carboxamide] | 1.1 | 504 | Minus NADPH Parent remaining 1st [1]: 69%; Minus NADPH Parent remaining 2nd [1]: 66%; Minus NADPH Parent remaining mean [1]: 67%; Plus NADPH Parent remaining 1st [1]: 0%; Plus NADPH Parent remaining 2nd [1]: 0%; Plus NADPH Parent remaining mean [1]: 0% |
| CC(C)Oc1cccc(-c2cnc(N3CCC(C(N)=O)CC3)s2)c1 [Example 123, 1-(5-(3-Isopropoxyphenyl)Thiazol-2-yl)Piperidine-4-Carboxamide] | 1.1 | 709.6 | SMN protein level versus dose (in words) (human SMN protein): up-regulation of SMN protein at concentrations ranging between 37 nM and 333 nM |
| CC(=O)c1ccc(-c2csc(N3CCC(C(N)=O)CC3)n2)cc1 [Example 45, 1-(4-(4-Acetylphenyl)Thiazol-2-yl)Piperidine-4-Carboxamide] | 2.1 | 130.4 |  |
| NC(=O)C1CCN(c2nc(-c3ccc(-c4ccccc4)cc3)cs2)CC1 [Example 28, 1-(4-(Biphenyl-4-yl)Thiazol-2-yl)Piperidine-4-Carboxamide] | 2.2 | 58.07 |  |
| O=C(O)C1CCN(c2nc(-c3ccc(Br)cc3)cs2)CC1 [Example 69, 1-(4-(4-Bromophenyl)Thiazol-2-yl)Piperidine-4-Carboxylic Acid] | 1.1 | 554.58 | Minus NADPH Parent remaining 1st [1]: 90%; Minus NADPH Parent remaining 2nd [1]: 101%; Minus NADPH Parent remaining mean [1]: 95%; Plus NADPH Parent remaining 1st [1]: 76%; Plus NADPH Parent remaining 2nd [1]: 85%; Plus NADPH Parent remaining mean [1]: 81% |
| CN(C)c1cccc(-c2nccc(N3CCC(C(N)=O)CC3)n2)c1 [Example 104, 1-(2-(3-(Dimethylamino)Phenyl)Pyrimidin-4-yl)Piperidine-4-Carboxamide] | 2.1 | 306.3 |  |
| NC(=O)C1CCN(c2nc(-c3ccc4c(c3)OCCCO4)cs2)CC1 [Example 99, 1-(4-(3,4-Dihydro-2H-Benzo[B][1,4]Dioxepin-7-yl)Thiazol-2-yl)Piperidine-4-Carboxamide] | 1.1 | 443.2 |  |
| Cc1cccc(-c2csc(N3CCC(C(N)=O)CC3)n2)c1 [Example 46, 1-(4-M-Tolylthiazol-2-yl)Piperidine-4-Carboxamide] | 2.1 | 187.4 |  |
| NC(=O)C1CCN(c2cc(-c3ccc4c(c3)OCCCO4)ncn2)CC1 [Example 142, 1-(6-(3,4-Dihydro-2H-Benzo[B][1,4]Dioxepin-7-yl)Pyrimidin-4-yl)Piperidine-4-Carboxamide] | 1.1 | 211.1 |  |
| CCOc1ccc(-c2csc(N3CCC(C(N)=O)CC3)n2)cc1 [Example 96, 1-(4-(4-Ethoxyphenyl)Thiazol-2-yl)Piperidine-4-Carboxamide] | 1.1 | 211.6 |  |
| CC(C)Oc1cccc(-c2csc(N3CCC(C(N)=O)CC3)n2)c1 [Example 107, 1-(4(3-Isopropoxyphenyl)Thiazol-2-yl)Piperidine-4-Carboxamide] | 1.1 | 605.6 |  |
| NC(=O)C1CCN(c2nc(-c3ccccc3)cs2)CC1 [Example 30, 1-(4-Phenylthiazol-2-yl)Piperidine-4-Carboxamide] | 1.1 | 166.6 |  |
| NC(=O)C1CCN(c2ncc(-c3ccc4c(c3)OCCCO4)s2)CC1 [Example 124, 1-(5-(3,4-Dihydro-2H-Benzo[B][1,4] Dioxepin-7-yl)Thiazol-2-yl)Piperidine-4-Carboxamide] | 1.1 | 370.5 | number of gems versus dose (in words) [2]: didn't show any activity |
| NC(=O)C1CCN(c2nc(-c3ccccc3N)cs2)CC1 [Example 53, 1-(4-(2-Aminophenyl)Thiazol-2-yl)Piperidine-4-Carboxamide] | 3 | 79.57 |  |
| NC(=O)C1CCN(c2nc(-c3ccc(Br)cc3)cs2)CC1 [Example 23, 1-(4-(4-Bromophenyl)Thiazol-2-yl)Piperidine-4-Carboxamide] | 1.1 | 267.7 | Minus NADPH Parent remaining 1st [1]: 68%; Minus NADPH Parent remaining 2nd [1]: 51%; Minus NADPH Parent remaining mean [1]: 59%; Plus NADPH Parent remaining 1st [1]: 55%; Plus NADPH Parent remaining 2nd [1]: 43%; Plus NADPH Parent remaining mean [1]: 49% |
| O=C(Nc1ccccc1)C1CCN(c2ncc(-c3ccc4c(c3)OCCCO4)s2)CC1 [Example 151, 1-(5-(3,4-Dihydro-2H-Benzo[B][1,4]Dioxepin-7-yl)Thiazol-2-yl)-N-Phenylpiperidine-4-Carboxamide] | 1.1 | 353 | SMN protein level versus dose (in words) (human SMN protein): up-regulation of SMN protein at concentrations ranging between 37 nM and 333 nM |
| CC(C)COc1ccc(-c2csc(N3CCC(C(N)=O)CC3)n2)cc1 [Example 106, 1-(4-(4-Isobutoxyphenyl)Thiazol-2-yl)Piperidine-4-Carboxamide] | 1.2 | 54 |  |
| NC(=O)C1CCN(c2nc(-c3ccc4c(c3)OCCO4)cs2)CC1 [Example 48, 1-(4-(2,3-Dihydrobenzo[B][1,4]Dioxin-6-yl)Thiazol-2-yl)Piperidine-4-Carboxamide] | 1.1 | 459 | Minus NADPH Parent remaining 1st [1]: 16%; Minus NADPH Parent remaining 2nd [1]: 15%; Minus NADPH Parent remaining mean [1]: 16%; Plus NADPH Parent remaining 1st [1]: 1%; Plus NADPH Parent remaining 2nd [1]: 0%; Plus NADPH Parent remaining mean [1]: 1% |
| CC(C)Oc1ccc(-c2csc(N3CCC(C(N)=O)CC3)n2)cc1 [Example 91, 1-(4-(4-Isopropoxyphenyl)Thiazol-2-yl)Piperidine-4-Carboxamide] | 1.1 | 178.2 |  |
| NC(=O)C1CCN(c2nc(-c3ccc([N+](=O)[O-])cc3)cs2)CC1 [Example 29, 1-(4-(4-Nitrophenyl)Thiazol-2-yl)Piperidine-4-Carboxamide] | 2.1 | 254.3 |  |
| Brc1ccc(-c2csc(N3CCC(c4nnn[nH]4)CC3)n2)cc1 [Example 112, 2-(4-(1H-Tetrazol-5-yl)Piperidin-1-yl)-4-(4-Bromophenyl)Thiazole] | 2.1 | 66.77 |  |
| NC(=O)C1CCN(c2nc(-c3ccc(Cl)cc3)cs2)CC1 [Example 20, 1-(4-(4-Chlorophenyl)Thiazol-2-yl)Piperidine-4-Carboxamide] | 1.1 | 380.6 |  |
